According to patent publication US5622962A, “5α-reductase inhibitors” (priority 1995, dated 1997):

Biological target: T1, Type II 5α-Reductase from Human Prostate (Homo sapiens, UniProt P31213)
T1 construct: The same procedure as above was used for preparations using tissue from prostate surgery; from tissue; host or cells: human prostate tissue from surgery, homogenate, 100,000×g pellet
T1 sequence (P31213 1-254): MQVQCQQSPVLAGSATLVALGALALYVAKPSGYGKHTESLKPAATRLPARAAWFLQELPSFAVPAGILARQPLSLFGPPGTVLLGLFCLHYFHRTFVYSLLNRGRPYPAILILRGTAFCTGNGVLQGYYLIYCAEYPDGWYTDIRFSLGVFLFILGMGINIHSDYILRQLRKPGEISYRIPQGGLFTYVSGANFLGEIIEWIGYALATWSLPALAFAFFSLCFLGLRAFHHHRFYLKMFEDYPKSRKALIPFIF
Experiment: Human Type II 5α-reductase assay (conversion of [3H]-testosterone to 5α-reduced metabolites)
Assay type: biochemical
Settings: pH 5.5, 0.3 μM; sodium acetate pH 5.5, 25°, 30 min; compared to control reaction mixtures; read-out: percent inhibition of Type II AR

Row | inhibition at 0.3 µM [%] | Compound
1 | 16 | COc1ccc(-c2ccc3c(c2)CC[C@H]2N(C)C(=O)CC[C@]32C)cc1 [Example 47, (+)-(4aR)-(10bR)-4-methyl-8-(4-methoxyphenyl)-10b-methyl-1,2,3,4,4a,5,6,10b-octahydrobenzo[f]quinolin-3-one]
2 | 1 | CN1C(=O)CC[C@]2(C)c3ccc(-c4ccc(Cl)cc4Cl)cc3CC[C@@H]12 [Example 94, (+)-(4aR)-(10bR)-4-methyl-8-(2,4-dichlorophenyl)-10b-methyl-1,2,3,4,4a,5,6,10b-octahydrobenzo[f]quinolin-3-one]
3 | 36 | CC(C)C(=O)c1ccc(-c2ccc3c(c2)CC[C@H]2N(C)C(=O)CC[C@]32C)cc1 [Example 122, (+)-(4aR)-(10bR)-4-methyl-8-(4-[isopropylcarbonyl]phenyl)-10b-methyl-1,2,3,4,4a,5,6,10b-octahydrobenzo[f]quinolin-3-one]
4 | 32 | COc1ccc(-c2ccc3c(c2)CC[C@H]2N(C)C(=O)CC[C@]32C)cc1OC [Example 42, (+)-(4 aR)-(10bR)-4-methyl-8-(3,4-dimethoxyphenyl)-10b-methyl-1,2,3,4,4a,5,6,10b-octahydrobenzo[f]quinolin-3-one]
5 | 44 | CN1C(=O)CC[C@]2(C)c3ccc(-c4ccc5c(c4)CCC5O)cc3CC[C@@H]12 (single isomer, unassigned; (+)) [Example 245]
6 | 27 | CN1C(=O)CC[C@]2(C)c3ccc(-c4cccc(F)c4)cc3CC[C@@H]12 [Example 44, (+)-(4aR)-(10bR)-4-methyl-8-(3-fluorophenyl)-10b-methyl-1,2,3,4,4a,5,6,10b-octahydrobenzo[f]quinolin-3-one]
7 | 45 | C[C@]12CCC(=O)N[C@@H]1CCc1cc(-c3cnc4ccccc4c3)ccc12 [Example 45, (+)-(4aR)-(10bR)-8-(3-quinolinyl)-10b-methyl-1,2,3,4,4a,-5,6,10b-octahydrobenzo[f]quinolin-3-one]
8 | 44 | CN1C(=O)CC[C@]2(C)c3ccc(/C=C/c4cncc5ccccc45)cc3CC[C@@H]12 [Example 281, (4aR)-(10bR)-4,10b-dimethyl-8-(2-[4-isoquinolinyl]ethenyl)-1,2,3,4,4a,5,6,10b-octahydrobenzo[f]quinolin-3-one]
9 | 40 | CSc1ccccc1-c1ccc2c(c1)CC[C@H]1N(C)C(=O)CC[C@]21C [Example 127, (+)-(4aR)-(10bR)-4-methyl-8-(2-methylthiophenyl)-10b-methyl-1,2,3,4,4a,5,6,10b-octahydrobenzo[f]quinolin-3-one]
10 | 20 | C[C@]12C=CC(=O)N[C@@H]1CCc1cc(-c3cccc4ccccc34)ccc12 [Example 140, (+)-(4aR)-(10bR)-8-(1-naphthyl)-10b-methyl-3,4,4a,5,6,10b-hexahydrobenzo[f]quinolin-3-one]
11 | 24 | CN1C(=O)CC[C@]2(C)c3ccc(Sc4ccccc4)cc3CC[C@@H]12 [Example 116, (4aR)-(10bR)-4,10b-dimethyl-8-phenylthio-1,2,3,4, -4a,5,6,10b-octahydrobenzo[f]quinolin-3-one]
12 | 15 | CCOc1ccc(-c2ccc(-c3ccc4c(c3)CC[C@H]3N(C)C(=O)CC[C@]43C)cc2)cc1 [Example 89, (+)-(4aR)-(10bR)-4-methyl-8-(4-[4-ethoxy]biphenyl)-10b-methyl-1,2,3,4,4a,5,6,10b-octahydrobenzo[f]quinolin-3-one]
13 | 37 | CN1C(=O)CC[C@]2(C)c3ccc(/C=C/c4cnc5ccccc5c4)cc3CC[C@@H]12 [Example 282, (4aR)-(10bR)-4,10b-dimethyl-8-(2-[3-quinolinyl]ethenyl)-1,2,3,4,4a,5,6,10b-octahydrobenzo[f]quinolin-3-one]
14 | 28 | CN1C(=O)CC[C@]2(C)c3ccc(-c4cccs4)cc3CC[C@@H]12 [Example 278, (4aR)-(10bR)-4,10b-dimethyl-8-(2-thiophenyl)-1,2,3,4,4a,5,6,10b-octahydrobenzo[f]quinolin-3-one]
15 | 30 | C[C@]12CCC(=O)N[C@@H]1CCc1cc(-c3ccc([N+](=O)[O-])cn3)ccc12 [Example 199, (+)-(4aR)-(10bR)-8-(5-nitro-2-pyridinyl)-10b-methyl-1,2,3,4,4a,5,6,10b-octahydrobenzo[f]quinolin-3-one]
16 | 18 | CN1C(=O)CC[C@]2(C)c3ccc(NC(=O)c4cccc([N+](=O)[O-])c4)cc3CC[C@@H]12 [Example 268, (+)-(4aR)-(10bR)-4,10b-dimethyl-8-(3-nitrobenzoylamino)-1,2,3,4,4a,5,6,10b-octahydrobenzo[f]quinolin-3-one]
17 | 19 | C[C@]12CCC(=O)N[C@@H]1CCc1cc(C(=O)Nc3ccccc3)ccc12 [Example 291, (+)-(4aR)-(10bR)-8-phenylcarboxamido-10b-methyl-1,2,3,4,4a,5,6,10b-octahydrobenzo[f]quinoline-3-one]

Row | inhibition at 0.3 µM [%] | Compound
18 | 3 | CN1C(=O)CC[C@]2(C)c3ccc(-c4ccc(OC(F)(F)F)cc4)cc3CC[C@@H]12 [Example 78, (+)-(4aR)-(10bR)-4-methyl-8-(4-trifluoromethoxyphenyl)-10b-methyl-1,2,3,4,4a,5,6,10b-octahydrobenzo[f]quinolin-3-one]
19 | 31 | CN(C)c1ccc(-c2ccc3c(c2)CC[C@H]2N(C)C(=O)CC[C@]32C)cc1 [Example 59, (+)-(4aR)-(10bR)-4-methyl-8-(4-dimethylaminophenyl)-10b-methyl-1,2,3,4,4a,5,6,10b-octahydrobenzo[f]quinolin-3-one]
20 | 19 | CN1C(=O)CC[C@]2(C)c3ccc(-c4cccc(Cl)c4)cc3CC[C@@H]12 [Example 63, (+)-(4aR)-(10bR)-4-methyl-8-(3-chlorophenyl)-10b-methyl-1,2,3,4,4a,5,6,10b-octahydrobenzo[f]quinolin-3-one]
21 | 36 | CN1C(=O)CC[C@]2(C)c3ccc(-c4ccc5c(c4)OCO5)cc3CC[C@@H]12 [Example 70, (+)-(4aR)-(10bR)-4-methyl-8-(3,4-methylenedioxyphenyl)-10b-methyl-1,2,3,4,4a,5,6,10b-octahydrobenzo[f]quinolin-3-one]
22 | 7 | C[C@]12CCC(=O)N[C@@H]1CCc1cc(-c3nccs3)ccc12 [Example 198, (+)-(4aR)-(10bR)-8-(2-thiazolyl)-10b-methyl-1,2,3,4,4a,-5,6,10b-octahydrobenzo[f]quinolin-3-one]
23 | 19 | C[C@]12C=CC(=O)N[C@@H]1CCc1cc(-c3cccc([N+](=O)[O-])c3)ccc12 [Example 141, (+)-(4aR)-(10bR)-8-(3-nitrophenyl)-10b-methyl-3,4,4a,5,6,10b-hexahydrobenzo[f]quinolin-3-one]
24 | 41 | CN1C(=O)CC[C@]2(C)c3ccc(-c4ccc(C#N)cc4)cc3CC[C@@H]12 [Example 121, (+)-(4aR)-(10bR)-4-methyl-8-(4-cyanophenyl)-10b-methyl-1,2,3,4,4a,5,6,10b-octahydrobenzo[f]quinolin-3-one]
25 | 19 | C[C@]12CCC(=O)N[C@@H]1CCc1cc(Sc3ccccc3)ccc12 [Example 22, (4aR)-(10bR)-8-phenylthio-10b-methyl-1,2,3,4,4a,5,6,10b-octahydrobenzo[f]quinolin-3-one]
26 | 34 | CN1C(=O)CC[C@]2(C)c3ccc(-c4ccc(C(F)(F)F)cc4)cc3CC[C@@H]12 [Example 79, (+)-(4aR)-(10bR)-4-methyl-8-(4-trifluoromethylphenyl)-10b-methyl-1,2,3,4,4a,5,6,10b-octahydrobenzo[f]quinolin-3-one]
27 | 12 | COc1cccc(-c2ccc3c(c2)CC[C@H]2N(C)C(=O)CC[C@]32C)c1 [Example 48, (+)-(4aR)-(10bR)-4-methyl-8-(3-methoxyphenyl)-10b-methyl-1,2,3,4,4a,5,6,10b-octahydrobenzo[f]quinolin-3-one]
28 | 12 | Cc1cc(C)cc(-c2ccc3c(c2)CC[C@H]2N(C)C(=O)CC[C@]32C)c1 [Example 83, (+)-(4aR)-(10bR)-4-methyl-8-(3,5-dimethylphenyl)-10b-methyl-1,2,3,4,4a,5,6,10b-octahydrobenzo[f]quinolin-3-one]
29 | 10 | C[C@]12CCC(=O)N[C@@H]1CCc1cc(-c3cccc4ccccc34)ccc12 [Example 92, (+)-(4aR)-(10bR)-8-(1-naphthyl)-10b-methyl-1,2,3,4,4a,5,6,10b-octahydrobenzo[f]quinolin-3-one]
30 | 42 | CN1C(=O)CC[C@]2(C)c3ccc(-c4ccc5cc(O)ccc5c4)cc3CC[C@@H]12 [Example 60, (+)-(4aR)-(10bR)-4-methyl-8-(2-[6-hydroxy]naphthyl)-10b-methyl-1,2,3,4,4a,5,6,10b-octahydrobenzo[f]quinolin-3-one]
31 | 27 | CN1C(=O)CC[C@]2(C)c3ccc(-c4cccc(NC(=O)c5ccccc5)c4)cc3CC[C@@H]12 [Example 273, (+)-(4aR)-(10bR)-4-methyl-8-(3-[benzoylamino]phenyl)-10b-methyl-1,2,3,4,4a,5,6,10b-octahydrobenzo[f]quinolin-3-one]
32 | 37 | C[C@]12CCC(=O)N[C@@H]1CCc1cc(-c3cc(C(F)(F)F)nc4c(C(F)(F)F)cccc34)ccc12 [Example 197, (+)-(4aR)-(10bR)-8-(4-[2,8-bistrifluoromethyl]quinolinyl)-10b-methyl-1,2,3,4,4a,5,6,10b-octahydrobenzo[f]quinolin-3-one]
33 | 20 | CN1C(=O)CC[C@]2(C)c3ccc(-c4cccc(C=O)c4)cc3CC[C@@H]12 [Example 57, (+)-(4aR)-(10bR)-4-methyl-8-(3-formylphenyl)-10b-methyl-1,2,3,4,4a,5,6,10b-octahydrobenzo[f]quinolin-3-one]
